Results taken from patent US12472210B2 (priority 2019, dated 2025).
Several values for one entry are separate records, joined by “and”; a condition that tells them apart may be missing. Equal entries are not always repeated. Where two headings read alike, the source gives them in different places.

How the values were obtained:
[1] = test system: subcutaneously transplanted human liver cancer LM3 tumor; design: species or system BALB/c nude mice; conditions: mouse, in vivo
[2] = mouse, in vivo, ip
[3] = test system: subcutaneously transplanted human liver cancer LM3 tumor; design: species or system BALB/c nude mice; conditions: mouse, in vivo, ip
[4] = mouse, in vivo

O=P1(N(CCCl)CCCl)NCCCO1 (centres unmarked) [cyclophosphamide]
Tumor inhibition rate (%) [1]: 79.33% and 79.33 ± 0.10%
Tumor weight [1]: 0.21 ± 0.10 g
Spleen index ([2]; 10 mg/kg): 1.08 ± 0.12 mg/g
Spleen quality ([2]; 10 mg/kg): 0.19 ± 0.01 g
body weight at the end of the experiment ([2]; 10 mg/kg): 18.58 ± 0.41 g
Spleen index ([2]; 20 mg/kg): 1.01 ± 0.08 mg/g
Spleen quality ([2]; 20 mg/kg): 0.17 ± 0.01 g
body weight at the end of the experiment ([2]; 20 mg/kg): 17.54 ± 0.28 g
Tumor inhibition rate (%) ([3]; 10 mg/kg): 33.21% and 33.21 ± 1.41%
Tumor weight ([3]; 10 mg/kg): 0.50 ± 0.02 g
Tumor inhibition rate (%) ([3]; 20 mg/kg): 62.67% and 62.67 ± 5.81%
Tumor weight ([3]; 20 mg/kg): 0.28 ± 0.06 g
Spleen quality [4]: 0.12 ± 0.02 g
body weight at the end of the experiment [4]: 18.91 ± 0.46 g
